In US6967196B1, “Sulfonamide compounds and uses thereof” (Bristol-Myers Squibb Company, priority 1999, dated 2005):
Structures can show the parent of a compound that is named as a salt. Where two headings read alike, the source gives them in different places. Values belong to the compound of their own block, whether it stands above or below them.

System: amyloid β production in transfected H4 (human neuroglioma) cells stably expressing APP constructs
Assay: In vitro cell-based assay of inhibitors of amyloid β production (ELISA)
Conditions: amyloid β in medium by ELISA
Summary of the method: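 H4 neuroglioma cells stably expressing APP constructs were dosed in fresh medium, screened initially at 10-100 μM, and incubated ~16 h. Medium Aβ was measured by ELISA with C-terminal-epitope capture and N-terminal detection antibodies, quantified from a standard curve, with dose-response testing of actives.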

[1] = Homo sapiens, 16 h, transfected H4 cells expressing APP, approximately 16 hours incubation, read-out: ACTIVITY (IC50, inhibition of amyloid β production)
[2] = transfected H4 cells stably expressing APP, approximately 16 hours incubation, read-out: ACTIVITY (IC50, inhibition of amyloid β production)
[3] = transfected H4 cells stably expressing APP, approx. 16 h incubation, read-out: ACTIVITY (IC50, inhibition of amyloid β production)
[4] = Homo sapiens, 16 h, transfected H4 cells stably expressing APP constructs, approximately 16 hours incubation, read-out: ACTIVITY (IC50, inhibition of amyloid β production)
[5] = transfected H4 cells stably expressing APP constructs, approximately 16 hours incubation, read-out: ACTIVITY (IC50, inhibition of amyloid β production)
[6] = Homo sapiens, 16 h, transfected H4 cells stably expressing APP, approx. 16 h incubation, read-out: ACTIVITY (IC50, inhibition of amyloid β production)

- IC50 (transfected H4 cells stably expressing APP, approximately 16 hours incubation, Table B, read-out: ACTIVITY (IC50, inhibition of amyloid β production)): 100 to 500 nM
Compound: COC(=O)C[S+]([O-])CCc1cc(F)ccc1[C@@H](C)N(c1cc(F)ccc1F)S(=O)(=O)c1ccc(Cl)cc1 (stereo partly drawn) [Example 476, Methyl ({2-[2-((1R)-1-{[(4-chlorophenyl)sulfonyl]-2,5-difluoroanilino}ethyl)-5-fluorophenyl]ethyl}sulfinyl)acetate]

- IC50 [1]: 100 to 500 nM
Compound: C[C@H](C(=O)NCCc1ccccn1)N(c1cc(Cl)ccc1F)S(=O)(=O)c1ccc(Cl)cc1 [Example 1339]

Compound: CC(c1ccccc1OCCCN(C)C(=O)Oc1ccccc1)N(c1cc(F)ccc1F)S(=O)(=O)c1ccc(Cl)cc1 (stereo not drawn) [Example 826, phenyl 3-[2-(1-{[(4-chlorophenyl)sulfonyl]-2,5-difluoroanilino}ethyl)phenoxy]propyl(methyl)carbamate]
- IC50 [2]: 100 to 500 nM

- IC50 [3]: 100 to 500 nM
Compound: N-{2-[2-(1-{[(4-chlorophenyl)sulfonyl]-2,5-difluoroanilino}ethyl)phenoxy]ethyl}-N-ethylcyclopentanecarboxamide [Example 721]

- IC50 [4]: ≤ 25 nM
Compound: C[C@H](CCCS(=O)(=O)N1CCSCC1)N(c1cc(Cl)ccc1Cl)S(=O)(=O)c1ccc(Cl)cc1 [Example 1211, 4-chloro-N-[2,5-dichlorophenyl]-N-[4-[(4-thiomorpholinyl)sulfonyl]-1(R)-methylbutyl]benzenesulfonamide]

- IC50 [2]: 100 to 500 nM
Compound: CN(CCCOc1ccccc1CN(c1cc(F)ccc1F)S(=O)(=O)c1ccc(Cl)cc1)C(=O)/C=C\c1ccccc1 [Example 841, (2Z)-N-{3-[2-({[(4-chlorophenyl)sulfonyl]-2,5-difluoroanilino}methyl)phenoxy]propyl}-N methyl-3-phenyl-2-propenamide]

Compound: O=S(=O)(c1ccc(Cl)cc1)N(Cc1ccccc1OCc1ccncc1)c1ccccc1 [Example 1030, 4-chloro-N-phenyl-N-[2-(4-pyrdinylmethoxy)benzyl]benzenesulfonamide hydrochloride]
- IC50 [2]: > 500 nM

- IC50 (Table B, transfected H4 cells stably expressing APP, approximately 16 hours incubation, read-out: ACTIVITY (inhibitory concentration IC50, inhibition of amyloid β production)): ≤ 25 nM
Compound: C[C@H](O)CO[Si](C)(C)C(C)(C)C [Example 21]

Compound: CC(C)C[C@@H](NC(=O)CCC[C@@H](C)N(c1cc(Cl)ccc1F)S(=O)(=O)c1ccc(Cl)cc1)C(=O)O [Example 1271, (R)-4-Chloro-N-(5-chloro-2-fluorophenyl)-N-[5-[N-(R)-[1-(carboxy)-3-methylbutyl]amino]-1-methyl-5-oxopentyl]benzenesulfonamide]
- IC50 [5]: 50 to 100 nM

Compound: CC(C)S(=O)(=O)CCC[C@@H](C)N(c1cc(Cl)ccc1Cl)S(=O)(=O)c1ccc(Cl)cc1 [Example 1161]
- IC50 [5]: ≤ 25 nM

- IC50 [3]: 100 to 500 nM
Compound: 2-((1R)-1-{[(4-chlorophenyl)sulfonyl]-2,5-difluoroanilino}ethyl)benzyl butyl(methyl)carbamate [Example 720]

- IC50 [1]: 100 to 500 nM
Compound: C[C@H](C(=O)NCC1CC1)C(c1cc(Cl)ccc1F)S(=O)(=O)c1ccc(Cl)cc1 (stereo partly drawn) [Example 1303]

- IC50 [2]: > 500 nM
Compound: C[C@H](c1ccc(F)cc1CCCC(=O)O)N(c1cc(F)ccc1F)S(=O)(=O)c1ccc(Cl)cc1 [Example 1072, 4-[2-((1R)-1-{[(4-chlorophenyl)sulfonyl]-2,5-difluoroanilino}ethyl)-5-fluorophenyl]butanoic acid]

Compound: C[C@H](CCCNS(C)(=O)=O)N(c1cc(Cl)ccc1F)S(=O)(=O)c1ccc(Cl)cc1 [Example 1100]
- IC50 [5]: ≤ 25 nM

- IC50 [3]: 100 to 500 nM
Compound: CC(C)CC(=O)N(C)CCCOc1ccccc1CN(c1cc(F)ccc1F)S(=O)(=O)c1ccc(Cl)cc1 [Example 791, N-{3-[2-({[(4-chlorophenyl)sulfonyl]-2,5-difluoroanilino}methyl)phenoxy]propyl}-N,3-dimethylbutamide]

Compound: CC(c1ccccc1OCCCN(C)S(=O)(=O)c1cccc(C(F)(F)F)c1)N(c1cc(F)ccc1F)S(=O)(=O)c1ccc(Cl)cc1 (stereo not drawn) [Example 788, N-{3-[2-(1-{[(4-chlorophenyl)sulfonyl]-2,5-difluoroanilino}ethyl)phenoxy]propyl}-N-methyl-3-(trifluoromethyl)benzenesulfonamide]
- IC50 [3]: 100 to 500 nM

- IC50 [6]: 100 to 500 nM
Compound: CCCC(C)N(Cc1ccccc1OCCCN1CCCCC1)S(=O)(=O)c1ccc(Cl)cc1 (stereo not drawn) [Example 781, 4-chloro-N-(1-methylbutyl)-N-{2-[3-(1-piperidinyl)propoxy]benzyl}benzenesulfonamide hydrochloride]

- IC50 [1]: > 500 nM
Compound: C[C@H](C(=O)NCCc1cccs1)N(c1cc(Cl)ccc1F)S(=O)(=O)c1ccc(Cl)cc1 [Example 1317]

- IC50 [3]: 100 to 500 nM
Compound: CCCC(C)N(Cc1ccccc1OCCCN1CCCCC1)S(=O)(=O)c1ccc(Cl)cc1 (stereo not drawn) [Example 782, 4-chloro-N-(1-methylbutyl)-N-{2-[3-(1-piperidinyl)propoxy]benzyl}benzenesulfonamide hydrochloride]

- IC50 (Homo sapiens, 16 h, transfected H4 cells stably expressing APP, approximately 16 hours incubation, read-out: ACTIVITY (IC50, inhibition of amyloid β production)): 100 to 500 nM
Compound: O=S(=O)(c1ccc(Cl)cc1)N(Cc1ccccc1OCCCN1CCOCC1)c1ccccc1 [Example 859, 4-chloro-N-{2-[3-(4-morpholinyl)propoxy]benzyl}-N-phenylbenzenesulfonamide hydrochloride]

Compound: COC(=O)[C@@H](NC(=O)CCCC[C@@H](C)N(c1cc(Cl)ccc1F)S(=O)(=O)c1ccc(Cl)cc1)C(C)C [Example 542, (R)-4-Chloro-N-(5-chloro-2-fluorophenyl)-N-[6-[N-(S)-[1-(methoxycarbonyl)-2-methylpropyl]amino]-1-methyl-6-oxohexyl]benzenesulfonamide]
- IC50 [3]: 100 to 500 nM

- IC50 [4]: > 10000 nM
Compound: O=S(=O)(c1ccccc1)N(Cc1ccccc1CCCO)c1ccccc1 [Example 1088, N-[2-(3-hydroxypropyl)benzyl]-N-phenylbenzenesulfonamide]

Compound: COC(=O)[C@H](NC(=O)CCC[C@@H](C)N(c1cc(Cl)ccc1F)S(=O)(=O)c1ccc(Cl)cc1)C(C)C [Example 1266, (R)-4-Chloro-N-(5-chloro-2-fluorophenyl)-N-[5-[N-(R)-[1-(methoxycarbonyl)-2-methylpropyl]amino]-1-methyl-5-oxopentyl]benzenesulfonamide]
- IC50 [5]: ≤ 25 nM

- IC50 [3]: 100 to 500 nM
Compound: N-{3-[2-(1-{[(4-chlorophenyl)sulfonyl]-2,5-difluoroanilino}ethyl)phenoxy]butyl}-3-cyclopentyl-N-methylpropanamide [Example 712]

- IC50 [4]: ≤ 25 nM
Compound: CCN(CC)S(=O)(=O)CCC[C@@H](C)N(c1cc(Cl)ccc1Cl)S(=O)(=O)c1ccc(Cl)cc1 [Example 1213, 4-chloro-N-[2,5-dichlorophenyl]-N-[4-[(diethylamino)sulfonyl]-1(R)-methylbutyl]benzenesulfonamide]

- IC50 [5]: 25 to 50 nM
Compound: methyl(6R)-6-[(2,5-dichlorophenyl)-[(4-chlorophenyl)sulfonyl]-amino]-3-thioheptanoic [Example 1185]

- IC50 [4]: ≤ 25 nM
Compound: C[C@H](CCCN1CCSC1C(=O)O)N(c1cc(Cl)ccc1Cl)S(=O)(=O)c1ccc(Cl)cc1 (stereo partly drawn) [Example 1103, 4-chloro-N-(2,5-dichlorophenyl)-N-[4-(2-carboxy-3-thiazolidinyl)-1(R)-methylbutyl]benzenesulfonamide]

- IC50 [2]: > 500 nM
Compound: 3-chloro-N-{3-[2-(1-{[(4-chlorophenyl)sulfonyl]-2,5-difluoroanilino}ethyl)phenoxy]propyl}benzamide [Example 900]

Compound: 4-butoxy-N-{3-[2-({[(4-chlorophenyl)sulfonyl]-2,5-difluoroanilino}methyl)phenoxy]propyl}-N-methylbenzamide [Example 817]
- IC50 [2]: 100 to 500 nM

- IC50 [2]: > 500 nM
Compound: 2-((1R)-1-{[(4-chlorophenyl)sulfonyl]-2,5-difluoroanilino}ethyl)benzyl 3,4-difluorobenzylcarbamate [Example 961]

- IC50 [5]: > 10000 nM
Compound: CCOC(=O)CCCc1ccccc1CN(c1ccccc1)S(=O)(=O)c1ccccc1[N+](=O)[O-] [Example 1096, ethyl 4-[2-({[(2-ntrophenyl)sulfonyl]anilino}methyl)phenyl]butanoate]

- IC50 [1]: 100 to 500 nM
Compound: CC1CCC(NC(=O)[C@@H](C)N(c2cc(Cl)ccc2F)S(=O)(=O)c2ccc(Cl)cc2)CC1 (stereo partly drawn) [Example 1342]

Compound: C[C@H](CCCNC(=O)[C@@H](O)c1ccccc1)N(c1cc(Cl)ccc1Cl)S(=O)(=O)c1ccc(Cl)cc1 [Example 1124]
- IC50 [5]: 50 to 100 nM

- IC50 [6]: 100 to 500 nM
Compound: CC(c1ccccc1OCCCN(C)S(=O)(=O)c1ccc(I)cc1)N(c1cc(F)ccc1F)S(=O)(=O)c1ccc(Cl)cc1 (stereo not drawn) [Example 692, 4-chloro-N-(2,5-difluorophenyl)-N-[1-(2-{3-[[(4-iodophenyl)sulfonyl](methyl)amino]propoxy}phenyl)ethyl]benzenesulfonamide]

Compound: 4-chloro-N-(2,5-dichlorophenyl)-N-[5-[[2-[(methylsulfonyl)-1-piperidinyl]-1(R)-methylpentyl]benzenesulfonamide [Example 1116]
- IC50 [5]: 25 to 50 nM

- IC50 [1]: > 500 nM
Compound: C[C@H](C(=O)N[C@@H](CO)CSCc1ccccc1)N(c1cc(Cl)ccc1F)S(=O)(=O)c1ccc(Cl)cc1 [Example 1343]
